Laboratory results taken from patent US4318917A, “Antiinflammatory 2,3-diaryl-5-[2,2,2-trifluoro-1-(trifluoromethyl]ethyl-1H-pyrroles” (E. I. Du Pont de Nemours and Company, priority 1981, dated 1982).

System: adjuvant-induced arthritis in rats
Assay: Established Adjuvant-Induced Arthritis in Rats (paw volume)
Type: in vivo, rat (Charles River Lewis male rats)
Conditions: oral gavage, 7 daily doses; for ED50: Rattus norvegicus, uninjected left hind paw, established adjuvant arthritis, read-out: Adjuvant Arthritis ED50 (ED50% decrease from control paw volume)
Experimental: A procedure for detecting and comparing the antiinflammatory activity of compounds in this series and standard drugs for which there is a good correlation with human efficacy is the adjuvant-induced arthritis test in rats.
The test procedure employed for determining antiinflammatory activity is described below.
Established Adjuvant-Induced Arthritis in Rats
Charles River Lewis male rats (130-150 grams) are injected subcutaneously in plantar area of the right hind paw with 0.1 ml of adjuvant (Difco heat-killed, lyophilized Mycobacterium butyricum suspended in mineral oil 5 mg/ml). 20 Non-arthritic controls are injected with mineral oil. The animals are held for 2 weeks to allow development of arthritis. Paw volumes (uninjected, left hind paw) are measured and the adjuvant injected rats are culled and distributed to treatment groups of 10 of equal disease severity. Non-arthritic controls are distributed to 2 groups of 10. The rats are given oral doses of compound or PVA-Acacia (Polyvinyl Alcohol 1%, Gum Acacia, U.S.P. 5%, Methylparaben 0.5%) (10 ml/kg) by gavage on that day and on the 6 following days. One day after the last dose the paw volumes (uninjected, left hind paw) are measured using a Ugo Basile Volume Differential Meter Model 7101. [formula]
% Decrease from Control Mean Paw Volume.
Dose-response regression lines of the % decrease are plotted on semi-log paper by visual fit and the ED50% decrease from control paw volume is determined by inspection.

SMILES	ED50 [mg/kg]	also measured
Fc1ccc(-c2cc(C(C(F)(F)F)C(F)(F)F)[nH]c2-c2ccc(F)cc2)cc1 [Example 2, 2,3-Bis(4-fluorophenyl)-5-[2,2,2-trifluoro-1-(trifluoromethyl)ethyl]-1H-pyrrole]	4	–
Fc1ccc(C2=CC(=C(C(F)(F)F)C(F)(F)F)N=C2c2ccc(F)cc2)cc1 [Example 17, 4,5-Bis(4-fluorophenyl)-2-[2,2,2-trifluoro-1-(trifluoromethyl)ethylidene]-2H-pyrrole]	33	–
FC(F)(F)C(c1cc(-c2ccccc2)c(-c2ccccc2)[nH]1)C(F)(F)F [Example 1, 2,3-Diphenyl-5-[2,2,2-trifluoro-1-(trifluoromethyl)-ethyl]-1H-pyrrole]	11	–
Fc1ccc(-c2cc(C(C(F)(F)F)C(F)(F)F)[nH]c2-c2ccc(Br)cc2)cc1 [Example 4]	3.9	–
Fc1ccc(C2=CC(=C(C(F)(F)F)C(F)(F)F)N=C2c2ccc(Br)cc2)cc1 [Example 18, 5-(4-bromophenyl)-4-(4-fluorophenyl)-2-[2,2,2-trifluoro-1-(trifluoromethyl)ethylidene]-2H-pyrrole]	–	percent reduction in paw volume at the indicated dose (at 25 mg/kg): 16%
Fc1ccc(-c2cc(C(C(F)(F)F)C(F)(F)F)[nH]c2-c2cccnc2)cc1 [Example 5]	–	percent reduction in paw volume at the indicated dose (at 5 mg/kg): 0%
FC(F)(F)C(c1cc(-c2ccc(Cl)cc2)c(-c2ccc(Cl)cc2)[nH]1)C(F)(F)F [Example 3]	15	–
CSc1ccc(-c2[nH]c(C(C(F)(F)F)C(F)(F)F)cc2-c2ccc(F)cc2)cc1 [Example 6]	2.5	–
